# Active and inactive are the calls of the source.
# Columns and labels:
# [1] = biological target: T1, Neuropeptide Y receptor type 1 (Homo sapiens, UniProt P25929); experiment: IC50 of human NPY-Y1 blockers – cell-based, dose response (AID 1277); assay type: functional
# [2] = biological target: T2, Neuropeptide Y receptor type 2 (Homo sapiens, UniProt P49146); experiment: IC50 for human NPY-Y2 blockade – cell-based, counter-screen for NPY-Y1 antagonist project, dose response (AID 1278); assay type: functional
# T2 sequence (P49146 whole entry): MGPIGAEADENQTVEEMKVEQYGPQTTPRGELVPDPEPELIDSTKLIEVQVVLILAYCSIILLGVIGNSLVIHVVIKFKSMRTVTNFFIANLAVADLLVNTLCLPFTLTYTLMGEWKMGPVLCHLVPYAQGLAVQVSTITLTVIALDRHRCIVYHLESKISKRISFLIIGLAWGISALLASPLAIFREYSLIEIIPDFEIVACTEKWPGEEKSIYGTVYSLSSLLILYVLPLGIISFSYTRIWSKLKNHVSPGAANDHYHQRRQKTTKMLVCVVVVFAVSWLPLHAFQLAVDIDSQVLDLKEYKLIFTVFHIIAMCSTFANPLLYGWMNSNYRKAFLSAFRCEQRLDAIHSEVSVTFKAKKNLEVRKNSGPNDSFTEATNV
# [3] = biological target: Aryl hydrocarbon receptor (Homo sapiens, UniProt P35869); experiment: Luminescence-based cell-based high throughput dose response assay for activators of the Aryl Hydrocarbon Receptor (AHR). [Related pubchem assays: 2796 (Primary screen (AHR activators in singlicate)), 2845 (Confirmation screen (AHR activators in triplicate)), 434939 (Counterscreen (PXR activators in triplicate)), 2804 (Summary (AHR activators))]; assay type: ADME
# Sequence of Aryl hydrocarbon receptor (P35869 whole entry): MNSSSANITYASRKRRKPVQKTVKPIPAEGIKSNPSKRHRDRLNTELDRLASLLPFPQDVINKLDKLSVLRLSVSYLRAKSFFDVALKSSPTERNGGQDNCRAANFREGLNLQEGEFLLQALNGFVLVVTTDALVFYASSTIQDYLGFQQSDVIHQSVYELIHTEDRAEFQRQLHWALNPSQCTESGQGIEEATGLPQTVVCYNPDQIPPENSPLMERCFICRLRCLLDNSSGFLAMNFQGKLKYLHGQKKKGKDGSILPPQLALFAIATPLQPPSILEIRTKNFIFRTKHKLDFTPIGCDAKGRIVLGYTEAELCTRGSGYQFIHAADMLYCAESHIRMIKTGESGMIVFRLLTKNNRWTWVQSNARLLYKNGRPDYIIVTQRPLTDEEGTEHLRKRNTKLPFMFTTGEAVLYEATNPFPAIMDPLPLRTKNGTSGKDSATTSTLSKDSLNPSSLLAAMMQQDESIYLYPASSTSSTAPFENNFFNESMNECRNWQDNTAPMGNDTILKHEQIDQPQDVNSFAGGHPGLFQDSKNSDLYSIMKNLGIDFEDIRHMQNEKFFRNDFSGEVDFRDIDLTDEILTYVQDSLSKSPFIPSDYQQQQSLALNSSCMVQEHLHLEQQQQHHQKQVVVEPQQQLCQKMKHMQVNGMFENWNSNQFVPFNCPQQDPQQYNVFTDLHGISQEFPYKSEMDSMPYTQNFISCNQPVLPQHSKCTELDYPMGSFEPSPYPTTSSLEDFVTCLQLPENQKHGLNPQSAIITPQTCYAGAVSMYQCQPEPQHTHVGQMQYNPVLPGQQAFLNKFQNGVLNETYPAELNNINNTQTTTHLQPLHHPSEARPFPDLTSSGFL
# [4] = alpha-synuclein stem-loop luciferase translation blockers – H4 neuroglioma cells, luminescence, confirmation (AID 1988); assay type: functional, cell-based
# [5] = biological target: Peroxisome proliferator-activated receptor gamma/Nuclear receptor corepressor 2 (Homo sapiens, UniProt P37231+Q9Y618); assay type: functional
# [6] = biological target: Galanin receptor type 2 (Homo sapiens, UniProt O43603); experiment: Dose Response cell-based high-throughput screening assay to identify agonists of galanin receptor 2 (GALR2). [Related pubchem assays: 864 ]; assay type: functional
# Sequence of Galanin receptor type 2 (O43603 whole entry): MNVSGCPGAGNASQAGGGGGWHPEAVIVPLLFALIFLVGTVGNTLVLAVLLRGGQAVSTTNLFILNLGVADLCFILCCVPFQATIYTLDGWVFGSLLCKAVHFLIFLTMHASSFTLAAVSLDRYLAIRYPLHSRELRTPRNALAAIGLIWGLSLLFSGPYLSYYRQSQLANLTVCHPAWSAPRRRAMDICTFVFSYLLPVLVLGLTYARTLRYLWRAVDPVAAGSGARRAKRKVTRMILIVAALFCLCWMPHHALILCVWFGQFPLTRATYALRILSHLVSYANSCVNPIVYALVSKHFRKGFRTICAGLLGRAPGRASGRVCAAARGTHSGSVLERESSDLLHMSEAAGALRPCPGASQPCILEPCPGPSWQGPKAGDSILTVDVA
# [7] = Luminescence Cell-Based Dose Response HTS to Identify Inhibitors of 5'UTR Stem-Loop Driven Prion Protein mRNA Translation in H4 Neuroglioblastoma Cells. [Related pubchem assays: 1827 (Project Summary), 1813 (Primary HTS)]; assay type: functional
# [8] = luciferase reporter signal suppression in cells – H4 neuroglioma cells, luminescence, dose response (AID 1990); assay type: functional, cell-based
# [9] = biological target: Photoreceptor-specific nuclear receptor (Homo sapiens, UniProt Q9Y5X4); assay type: functional;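 note: potency for compounds that break the NR2E3 corepressor complex and count as activators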
# Sequence of Photoreceptor-specific nuclear receptor (Q9Y5X4 whole entry): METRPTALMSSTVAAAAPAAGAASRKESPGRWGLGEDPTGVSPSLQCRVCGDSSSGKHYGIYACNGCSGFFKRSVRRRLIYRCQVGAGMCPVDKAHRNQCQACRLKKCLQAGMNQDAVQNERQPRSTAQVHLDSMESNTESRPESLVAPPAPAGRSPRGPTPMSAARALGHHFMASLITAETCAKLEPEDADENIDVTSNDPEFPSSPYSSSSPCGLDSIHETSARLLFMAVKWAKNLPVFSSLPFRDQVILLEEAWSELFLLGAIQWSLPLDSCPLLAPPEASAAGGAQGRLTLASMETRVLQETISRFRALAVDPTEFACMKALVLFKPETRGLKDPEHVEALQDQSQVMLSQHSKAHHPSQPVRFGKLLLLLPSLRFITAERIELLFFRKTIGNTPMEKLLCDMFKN
# [10] = biological target: Vasopressin V1a receptor (Homo sapiens, UniProt P37288); experiment: Fluorescence-based cell-based high throughput dose response screening assay for agonists of the vasopressin 1 receptor (V1R).; assay type: functional
# Sequence of Vasopressin V1a receptor (P37288 whole entry): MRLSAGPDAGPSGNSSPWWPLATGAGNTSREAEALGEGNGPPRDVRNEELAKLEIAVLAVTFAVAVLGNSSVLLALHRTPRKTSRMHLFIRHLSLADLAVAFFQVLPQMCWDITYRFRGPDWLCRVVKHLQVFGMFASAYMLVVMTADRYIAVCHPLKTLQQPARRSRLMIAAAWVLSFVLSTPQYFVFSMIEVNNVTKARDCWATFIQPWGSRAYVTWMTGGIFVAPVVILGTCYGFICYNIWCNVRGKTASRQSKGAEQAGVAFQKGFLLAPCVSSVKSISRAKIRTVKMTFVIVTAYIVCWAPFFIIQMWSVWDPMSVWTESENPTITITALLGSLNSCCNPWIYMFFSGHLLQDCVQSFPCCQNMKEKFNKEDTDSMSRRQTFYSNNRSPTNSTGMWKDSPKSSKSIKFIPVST
# [11] = Luminescence Cell-Based Dose Retest to Confirm Inhibitors of Cancer Stem Cells. [Related pubchem assays (depositor defined):AID2717, AID2721]; assay type: functional; conditions: Homo sapiens
# [12] = biological target: Oxytocin receptor (Homo sapiens, UniProt P30559); experiment: Counterscreen for vasopressin 1 receptor (V1R) agonists: Fluorescence-based cell-based high throughput dose response assay for agonists of the Oxytocin Receptor (OXTR). [Related pubchem assays: 2435 (Primary screen (OXTR agonists in singlicate)), 434964 (Confirmation screen (V1R agonists in triplicate)), 434969 (Counterscreen (OXTR agonists in …; assay type: functional
# Sequence of Oxytocin receptor (P30559 whole entry): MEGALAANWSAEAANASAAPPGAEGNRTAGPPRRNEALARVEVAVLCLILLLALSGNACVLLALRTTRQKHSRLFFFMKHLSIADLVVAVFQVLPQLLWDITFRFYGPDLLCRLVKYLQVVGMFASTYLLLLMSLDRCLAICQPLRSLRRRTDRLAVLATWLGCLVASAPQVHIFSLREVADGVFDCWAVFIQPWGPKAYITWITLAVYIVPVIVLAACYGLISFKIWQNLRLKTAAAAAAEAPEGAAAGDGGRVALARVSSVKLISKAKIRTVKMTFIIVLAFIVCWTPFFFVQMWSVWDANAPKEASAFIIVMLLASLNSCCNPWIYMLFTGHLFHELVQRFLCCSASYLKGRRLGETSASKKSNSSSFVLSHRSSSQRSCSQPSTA
# [13] = biological target: T1, Neuropeptide Y receptor type 1; assay type: functional
# [14] = biological target: T2, Neuropeptide Y receptor type 2; assay type: functional, cell-based
# [15] = HEK-293T viability loss after treatment – luminescence, T-cell screen hits, cytotoxicity control for TCR NF-kB inhibitor project, dose response (AID 489026); assay type: functional, cell-based;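 note: cells exposed to compound about 14 hours before the viability readout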
# [16] = test system: INS1; experiment: INS-1E survival protection against cytokine death – cell-based, luminescence, retest, dose response (AID 449756); assay type: functional; conditions: Rattus norvegicus;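 note: cell death triggered by IL-1 beta plus TNF-alpha plus IFN-gamma mixture; protective hits raise ATP signal compared with cytokine alone wells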
# [17] = test system: Vero; experiment: mammalian cell viability reduction – secondary assay, cytotoxicity control for West Nile virus antiviral project, dose response (AID 1650); assay type: functional; conditions: Chlorocebus sabaeus
# T1 sequence (P25929 whole entry): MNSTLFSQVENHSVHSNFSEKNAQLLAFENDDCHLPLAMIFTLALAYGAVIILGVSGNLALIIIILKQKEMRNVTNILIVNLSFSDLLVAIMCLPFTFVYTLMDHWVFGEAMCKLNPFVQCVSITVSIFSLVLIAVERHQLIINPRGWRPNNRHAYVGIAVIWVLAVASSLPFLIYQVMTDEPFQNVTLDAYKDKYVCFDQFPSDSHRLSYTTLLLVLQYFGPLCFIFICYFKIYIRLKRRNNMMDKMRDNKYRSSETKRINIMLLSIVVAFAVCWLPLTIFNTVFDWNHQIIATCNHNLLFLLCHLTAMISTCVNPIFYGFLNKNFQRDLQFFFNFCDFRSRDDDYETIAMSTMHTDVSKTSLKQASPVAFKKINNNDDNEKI
smiles,measurement,setting,value
CCOC(=O)C(/C=N/c1cc(C)nn1-c1ccc(Cl)cc1)=C(\O)OCC,IC50,[1],18.9 µM (not active)
same,IC50,[2],30.6 µM (not active)
O=C(Nc1cccc(-c2nc3cc(Cl)ccc3o2)c1)C1CCCO1 (configuration not stated),EC50,[3],2.58 µM (active)
CCOc1ccc(Br)cc1C(=O)Nc1ccc(C(=O)NCC(C)C)cc1,EC50,[4],> 120 µM (not active)
same,IC50,[5],> 39.8 µM (not active)
same,EC50,[6],> 55.7 µM (not active)
same,EC50,[7],18.1 µM (active)
same,EC50,[8],21.6 µM (active)
same,IC50,[9],> 39.8 µM (not active)
CCc1ccc(N=Nc2ccc(O)c3[nH]cnc23)cc1,EC50,[10],> 29.9 µM (not active)
same,AC50,[11],0.996 µM (active)
same,EC50,[12],> 29.9 µM (not active)
COC(=O)c1ccccc1NC(=O)Cn1c(-c2nonc2N)nc2ccccc21,IC50,[13],4.83 µM (active)
same,IC50,[14],15 µM (not active)
same,IC50,[15],> 80 µM (inactive)
CC1=NN(c2nc(-c3ccc(C)cc3)cs2)C(=O)C1N=Nc1ccc(C(N)=O)cc1 (configuration not stated),AC50,[16],2.53 µM (active)
same,CC50,[17],6.04 µM (active)

# Reference: ChEMBL document CHEMBL1201862, “PubChem BioAssay data set” (2004)
